From patent US20230338534A1, “METHOD” (AUTOLUS LIMITED, priority 2020, published 2023)

System: RQR8+ cells expressing TRBC2 CAR alone
Assay: Tacrolimus effect on proliferation of CAR-T cells in 4 day co-culture
Format: cell-based
Conditions: 20 ng/ml; 4 days co-culture with TRBC2+ targets
Experimental: In a similar study, cells transduced to express either TRBC2 CAR alone or TRBC2 CAR in combination with a calcineurin mutant (CnB30) were co-cultured for 4 days with TRBC2+ positive targets in the presence or absence of 20 ng/ml of Tacrolimus. […] This was true for cells expressing TRBC2 CAR alone or co-expressing TRBC2 CAR in combination with the calcineurin mutant.

## C=CC[C@@H]1/C=C(\C)C[C@H](C)C[C@H](OC)[C@H]2O[C@@](O)(C(=O)C(=O)N3CCCC[C@H]3C(=O)O[C@H](/C(C)=C/[C@@H]3CC[C@@H](O)[C@H](OC)C3)[C@H](C)[C@@H](O)CC1=O)[C@H](C)C[C@@H]2OC [Tacrolimus, tacrolimus]
  effect on proliferation of cells expressing TRBC2 CAR alone: inhibits proliferation
